# Conditions: acetone, ethanol, methanol, isopropyl alcohol, alkaline water-based solvents, 25° C. and 45° C.
smiles,measurement,setting,value
"CNC[C@H](O)c1ccc(O)c(O)c1 [Epinephrine base particles, Epinephrine base]",time for which size and structure of epinephrine particles is maintained in solvents/dispersants,,at least 6 hours
same,solubility of epinephrine particles in the selected solvents/dispersants,"up to 6 hours, SEM",none or very limited solubility
